Assay [1] deals with human RORγt ligand binding domain (RORγt LBD) (Homo sapiens (Human), UniProt P51449). Nature of the assay: RORγt ThermoFluor® assay (thermal shift binding). The note with it: read-out: ThermoFluor® Assay, Kd. In outline: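 Binding was inferred from thermal stabilisation (ΔTm) of the E. coli-expressed RORγt LBD (0.065 mg/mL), monitored by 1,8-ANS (60 μM) emission at 500 nm during a 1 °C/min ramp. Buffer was Hepes 100 mM pH 7.0 with NaCl, GSH and Tween-20.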

In assay [2] the target is full-length human RORγt (Homo sapiens (Human), UniProt P51449). Nature of the assay: RORγt (full-length human) reporter assay, Conditions B or C. The class given is cell-based. The following applies: for IC50: read-out: RORγt (FL) Reporter Assay B or C, IC50; for inhibition at 3 µM: at 3 μM compound concentration, read-out: RORγt (FL) Reporter Assay B or C, % inhibition; for RORγt (FL) Reporter Assay B or C, % inhibition (value marked *): marked *: footnote not given; for inhibition at 6 µM: read-out: RORγt (FL) Reporter Assay B or C, % inhibition @ 6 μM, Conditions B or C. In outline: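 Readout is dual luciferase: firefly (GAL4-driven) normalized to DMSO-only and saturating-reference controls, then to CMV-Renilla. Full-length human RORγt fused to GAL4-DBD was transiently expressed in HEK293T; compound exposure ran overnight (16-20 h) starting 4-6 h after transfection, final FBS 1.3%, DMSO 0.1%.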
In general terms: Reporter assays use an easily measured gene product as a stand-in for the process of interest.

Where two headings read alike, the source gives them in different places.

Chain of full-length human RORγt (P51449 other isoform, or with tags, fused parts or gaps): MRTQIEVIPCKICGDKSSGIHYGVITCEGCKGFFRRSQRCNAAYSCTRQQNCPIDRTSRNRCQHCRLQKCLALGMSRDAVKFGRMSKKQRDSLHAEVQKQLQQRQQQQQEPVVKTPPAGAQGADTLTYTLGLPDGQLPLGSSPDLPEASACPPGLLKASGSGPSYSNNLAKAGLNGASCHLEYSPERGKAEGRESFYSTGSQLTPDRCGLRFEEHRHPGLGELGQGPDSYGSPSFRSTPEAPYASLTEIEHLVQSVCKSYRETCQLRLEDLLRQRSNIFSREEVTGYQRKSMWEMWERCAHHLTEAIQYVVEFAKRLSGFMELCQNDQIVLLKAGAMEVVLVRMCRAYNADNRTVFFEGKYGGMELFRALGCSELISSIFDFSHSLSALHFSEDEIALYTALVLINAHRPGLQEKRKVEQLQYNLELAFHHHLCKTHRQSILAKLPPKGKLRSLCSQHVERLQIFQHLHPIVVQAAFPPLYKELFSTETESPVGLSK
Chain of human RORγt ligand binding domain (RORγt LBD) (P51449 other isoform, or with tags, fused parts or gaps): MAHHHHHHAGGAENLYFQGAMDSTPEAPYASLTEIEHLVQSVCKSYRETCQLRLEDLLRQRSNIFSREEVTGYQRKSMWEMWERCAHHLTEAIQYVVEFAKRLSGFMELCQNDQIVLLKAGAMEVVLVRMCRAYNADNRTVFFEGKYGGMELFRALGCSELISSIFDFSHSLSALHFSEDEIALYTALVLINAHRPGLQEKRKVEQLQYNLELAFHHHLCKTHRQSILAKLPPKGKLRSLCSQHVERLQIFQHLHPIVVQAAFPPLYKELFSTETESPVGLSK

For the compound `C[C@@H](Nc1cc(C(F)(F)F)c(-c2sc(C(=O)NCC(C)(C)O)nc2C(=O)N2CCC[C@@H]2C)cn1)C1CCC1` (relative stereo) [Example 176, 5-(6-(((R*)-1-Cyclobutylethyl)amino)-4-(trifluoromethyl)pyridine-3-yl)-N-(2-hydroxy-2-methylpropyl)-4-((S)-2-methylpyrrolidine-1-carbonyl)thiazole-2-carboxamide], the Kd in assay [1] was determined as 1.3 nM. The “RORγt (FL) Reporter Assay B or C, % inhibition (value marked ***)” value in assay [2] (Conditions B or C, marked ***: footnote not given) is listed as 115*** %. Further, in assay [2] (Conditions B or C), the half-inhibitory concentration (IC50) worked out at 15 nM.

On to `C[C@H]1CCCN1C(=O)c1nc(C(=O)NC(C)(C)C(C)(C)O)sc1-c1cnc(NC(C)(C)C)cc1C(F)(F)F` [Example 342, 5-[6-(tert-Butylamino)-4-(trifluoromethyl)-3-pyridyl]-N-(2-hydroxy-1,1,2-trimethyl-propyl)-4-[(2S)-2-methylpyrrolidine-1-carbonyl]thiazole-2-carboxamide], for which, in assay [1], the Kd was 5.7 nM. In addition, in assay [2], the inhibition at 3 µM was determined as 103% and the IC50 was 40 nM.

Take `C[C@H](Nc1cc(C(F)F)c(-c2sc(C(=O)N3CC(S(C)(=O)=O)C3)nc2C(=O)N2CCC[C@@H]2C)cn1)C(F)(F)F` [Example 450]: the Kd in assay [1] came to 50 nM. For the same compound, in assay [2], the inhibition at 3 µM amounted to 106% and the half-inhibitory concentration (IC50) is 230 nM.

As to `CC[C@H](Nc1cc(C(F)F)c(-c2sc(C(=O)N[C@H]3COC[C@H]3O)nc2C(=O)N2CCC[C@@H]2C)cn1)C(F)(F)F` (single isomer, unassigned) [Example 165, 5-(4-(Difluoromethyl)-6-(((S)-1,1,1-trifluorobutan-2-yl)amino)pyridin-3-yl)-N-((3S*,4S*)-4-hydroxytetrahydrofuran-3-yl)-4-((S)-2-methylpyrrolidine-1-carbonyl)thiazole-2-carboxamide], in assay [1], the Kd amounted to 3.1 nM. Besides, in assay [2] (Conditions B or C), the “RORγt (FL) Reporter Assay B or C, % inhibition (value marked *)” value (“RORγt … % inhibition (value marked *)” below) was 98* % and the IC50 came out at 40 nM.

Take `C[C@H]1CCCN1C(=O)c1nc(C(=O)N[C@H]2COC[C@@H]2O)sc1-c1cnc(NC(C)(C)C)cc1C(F)(F)F` [Example 348, 5-[6-(tert-Butylamino)-4-(trifluoromethyl)-3-pyridyl]-N-[(3S,4R)-4-hydroxytetrahydrofuran-3-yl]-4-[(2S)-2-methylpyrrolidine-1-carbonyl]thiazole-2-carboxamide]: the Kd in assay [1] came to 0.9 nM. Moreover, in assay [2], the inhibition at 3 µM was determined as 105% and the 50% inhibitory concentration (IC50) worked out at 3.1 nM.

With `C[C@H]1CCCCN1C(=O)c1nc(C(=O)NCC(C)(C)O)sc1-c1cnc(N[C@@H]2CCCCC2(F)F)cc1C(F)(F)F` (relative stereo) [Example 31, 5-(6-(((R*)-2,2-Difluorocyclohexyl)amino)-4-(trifluoromethyl)pyridin-3-yl)-N-(2-hydroxy-2-methylpropyl)-4-((S)-2-methylpiperidine-1-carbonyl)thiazole-2-carboxamide], the Kd in assay [1] stood at 0.15 nM. The IC50 in assay [2] (Conditions B or C) was found to be 4.5 nM. Also, the inhibition at 6 µM in assay [2] was 111%.

As for `C[C@H]1CCCN1C(=O)c1nc(C(=O)N[C@H]2CC[C@@H]2O)sc1-c1cnc(NC(C)(C)C)cc1C(F)(F)F` (relative stereo) [Example 371, 5-(6-(tert-Butylamino)-4-(trifluoromethyl)pyridin-3-yl)-N-((1S*,2S*)-2-hydroxycyclobutyl)-4-((S)-2-methylpyrrolidine-1-carbonyl)thiazole-2-carboxamide], the Kd in assay [1] turned out to be 0.88 nM. In assay [2], the inhibition at 3 µM was 108% and the IC50 amounted to 19 nM.

Regarding `CC[C@H](Nc1cc(C(F)F)c(-c2sc(C(=O)N[C@@H](C)[C@H](C)O)nc2C(=O)N2CCC[C@@H]2C)cn1)C(F)(F)F` (relative stereo) [Example 217, 5-(4-(Difluoromethyl)-6-(((S)-1,1,1-trifluorobutan-2-yl)amino)pyridin-3-yl)-N-((2S*,3S*)-3-hydroxybutan-2-yl)-4-((S)-2-methylpyrrolidine-1-carbonyl)thiazole-2-carboxamide], in assay [1], the Kd stood at 3.2 nM. Besides, in assay [2] (Conditions B or C), the “RORγt … % inhibition (value marked *)” value is given as 109* % and the IC50 was determined as 19 nM.

For `C[C@@H](CO)NC(=O)c1nc(C(=O)N2CCC[C@@H]2C)c(-c2cnc(NC(C)(C)C)cc2C(F)(F)F)s1` [Example 362, 5-[6-(tert-Butylamino)-4-(trifluoromethyl)-3-pyridyl]-N-[(1S)-2-hydroxy-1-methyl-ethyl]-4-[(2S)-2-methylpyrrolidine-1-carbonyl]thiazole-2-carboxamide], the Kd in assay [1] stood at 4 nM. Besides, in assay [2], the inhibition at 3 µM worked out at 99% and the IC50 is 21 nM.

As to `C[C@H]1CCCN1C(=O)c1nc(C(=O)N[C@H]2C[C@@H](O)C2)sc1-c1cnc(NC(C)(C)C)cc1C(F)(F)F` [Example 251, 5-[6-(tert-Butylamino)-4-(trifluoromethyl)-3-pyridyl]-N-((1s,3R)-3-hydroxycyclobutyl)-4-[(2S)-2-methylpyrrolidine-1-carbonyl]thiazole-2-carboxamide], in assay [1], the Kd was found to be 21 nM. Also, in assay [2], the inhibition at 3 µM was determined as 104% and the IC50 was 72 nM.

As for `CC[C@H](Nc1cc(C(F)F)c(-c2sc(C(=O)N[C@@H]3COC[C@@H]3O)nc2C(=O)N2CCC[C@@H]2C)cn1)C(F)(F)F` (single isomer, unassigned) [Example 162, 5-(4-(Difluoromethyl)-6-(((S)-1,1,1-trifluorobutan-2-yl)amino)pyridin-3-yl)-N-((3R*,4R*)-4-hydroxytetrahydrofuran-3-yl)-4-((S)-2-methylpyrrolidine-1-carbonyl)thiazole-2-carboxamide], the Kd in assay [1] was 9.5 nM. Moreover, in assay [2] (Conditions B or C), the “RORγt … % inhibition (value marked *)” value is given as 104* % and the IC50 is 31 nM.

In the case of `C[C@H]1CCN1C(=O)c1nc(C(=O)NCC(C)(C)O)sc1-c1cnc(NC2CCCCC2)cc1C(F)(F)F` [Example 25, (S)-5-(6-(Cyclohexylamino)-4-(trifluoromethyl)pyridin-3-yl)-N-(2-hydroxy-2-methylpropyl)-4-(2-methylazetidine-1-carbonyl)thiazole-2-carboxamide], the Kd in assay [1] worked out at 120 nM. For the same compound, the IC50 in assay [2] (Conditions B or C) amounted to 220 nM. Also, the inhibition at 6 µM in assay [2] turned out to be 102%.

For the compound `CC[C@@H](Nc1cc(C(F)(F)F)c(-c2sc(C(=O)NCC(C)(C)O)nc2C(=O)N2CCC[C@@H]2C)cn1)C1CC1` (relative stereo) [Example 129, 5-(6-(((R*)-1-Cyclopropylpropyl)amino)-4-(trifluoromethyl)pyridin-3-yl)-N-(2-hydroxy-2-methylpropyl)-4-((S)-2-methylpyrrolidine-1-carbonyl)thiazole-2-carboxamide], the Kd in assay [1] was found to be 3 nM. Moreover, in assay [2] (Conditions B or C), the “RORγt … % inhibition (value marked *)” value is listed as 104* % and the IC50 was determined as 11 nM.

Take `CC(C)[C@H](C)Nc1cc(C(F)F)c(-c2sc(C(=O)NCC(C)(C)O)nc2C(=O)N2CCC[C@@H]2C)cn1` [Example 300, 5-(4-(Difluoromethyl)-6-(((S)-3-methylbutan-2-yl)amino)pyridine-3-yl)-N-(2-hydroxy-2-methylpropyl)-4-((S)-2-methylpyrrolidine-1-carbonyl)thiazole-2-carboxamide]: the Kd in assay [1] was 1.6 nM. In assay [2], the inhibition at 3 µM turned out to be 100% and the IC50 was determined as 29 nM.

What is called Kd is the concentration at which binding is half-saturated. By IC50 is commonly meant the midpoint of a concentration-inhibition curve. For orientation: inhibition means the change of the read-out against control, counted positive when it falls.

For the origin of these results see patent US10975068B2, “6-aminopyridin-3-yl thiazoles as modulators of RORγT” (Janssen Pharmaceutica NV, priority 2016, dated 2021).
